{"source": "patent US8697683B2", "about": "“Azetidinyl diamides as monoacylglycerol lipase inhibitors” (Janssen Pharmaceutica, NV, priority 2009, dated 2014)", "key": {"[1]": {"system": "CFA-induced thermal hypersensitivity", "assay": "CFA-Induced Paw Radiant Heat Hypersensitivity", "format": "in vivo", "settings": "rat, 30 mg/kg p.o., HPβCD vehicle; for Method 1: peak % reversal: group mean values, maximum at any time point up to 180 or 300 min", "method": "A radiant thermal stimulus (beam of light) was then focused through the glass onto the plantar surface of each hind paw in turn. […] An initial (baseline) response latency to the thermal stimulus was recorded for each animal prior to the injection of complete Freund's adjuvant (CFA). 24 h following intraplantar CFA injection, the response latency of the animal to the thermal stimulus was then re-evaluated and compared to the animal's baseline response time. […] Immediately following the post-CFA latency assessment, the indicated test compound or vehicle was administered orally. […] More specifically: For all compounds, the % R of hypersensitivity was calculated using the mean value for groups of animals at each time point according to the following formula: % reversal=[(group treatment response−group CFA response)/(group baseline response−group CFA response)]×100 Results are given for the maximum % reversal observed for each compound at any time point tested. For some compounds, the % R of hypersensitivity was calculated separately for each animal according to the following formula: % reversal=[(individual treatment response−individual CFA response)/(individual baseline response−individual CFA response)]×100. Results are given as a mean of the maximum % reversal values calculated for each individual animal."}, "mutant MGL": {"target": "T1, mutant MGL (Homo sapiens, UniProt Q99685, L169S/L176S)", "T1 sequence (Q99685 1-303 L169S/L176S)": "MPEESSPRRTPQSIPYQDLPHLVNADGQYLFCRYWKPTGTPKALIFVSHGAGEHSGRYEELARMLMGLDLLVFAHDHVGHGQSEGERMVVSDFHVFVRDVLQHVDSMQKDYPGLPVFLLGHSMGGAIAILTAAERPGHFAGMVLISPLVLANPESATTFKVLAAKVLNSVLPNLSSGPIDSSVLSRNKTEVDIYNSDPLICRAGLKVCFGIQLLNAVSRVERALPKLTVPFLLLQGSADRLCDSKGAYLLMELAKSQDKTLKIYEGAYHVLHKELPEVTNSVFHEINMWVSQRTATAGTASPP", "assay": "MGL ThermoFluor Assay-Mutant", "experimental": "The ThermoFluor (TF) assay is a 384-well plate-based binding assay that measures thermal stability of proteins^1,2. […] TF dye used in all experiments was 1,8-ANS (Invitrogen: A-47). Final TF assay conditions used for MGL studies were 0.07 mg/ml of mutant MGL, 100 μM ANS, 200 mM NaCl, 0.001% Tween-20 in 50 mM PIPES (pH=7.0).\nScreening compound plates contained 100% DMSO compound solutions at a single concentration. […] Columns 12 and 24 were used as DMSO reference and contained no compound. […] Following compound dispension, protein and dye solutions were added to achieve the final assay volume of 3 μL.\nBar-coded assay plates were robotically loaded onto a thermostatically controlled PCR-type thermal block and then heated from 40 to 90° C. degrees at a ramp-rate of 1° C./min for all experiments. Fluorescence was measured by continuous illumination with UV light (Hamamatsu LC6), supplied via fiber optics and filtered through a band-pass filter (380-400 nm; >60D cutoff). Fluorescence emission of the entire 384-well plate was detected by measuring light intensity using a CCD camera (Sensys, Roper Scientific) filtered to detect 500±25 nm, resulting in simultaneous and independent readings of all 384 wells. A single image with 20-sec exposure time was collected at each temperature, and the sum of the pixel intensity in a given area of the assay plate was recorded vs temperature and fit to standard equations to yield the Tm^1. • 1.\nFor some experiments, quantitative NMR spectroscopy (qNMR) was used to measure concentration of the initial 100% DMSO compound solutions and, using the same fitting method, qKd values were determined"}, "MGL": {"target": "T2, MGL (Rattus norvegicus, UniProt Q8R431)", "T2 construct": "one g rat brain was homogenized", "T2 sequence (Q8R431 1-303)": "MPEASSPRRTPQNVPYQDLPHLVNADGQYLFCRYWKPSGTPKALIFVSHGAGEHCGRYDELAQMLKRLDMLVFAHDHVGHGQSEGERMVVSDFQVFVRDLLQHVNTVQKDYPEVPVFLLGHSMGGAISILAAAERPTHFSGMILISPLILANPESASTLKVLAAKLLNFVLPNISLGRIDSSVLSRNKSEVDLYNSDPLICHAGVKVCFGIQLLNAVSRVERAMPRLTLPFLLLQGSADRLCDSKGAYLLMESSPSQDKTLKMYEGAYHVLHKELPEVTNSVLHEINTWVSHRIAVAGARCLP", "assay": "2-AG Accumulation Assay (rat brain homogenate)", "format": "biochemical", "settings": "compound 1 μM, percent of vehicle 2-AG accumulation"}, "[2]": {"target": "T3, purified wild type MGL (wt-MGLL 6H-11-313) (Homo sapiens, UniProt Q99685)", "T3 sequence (Q99685 1-303)": "T1 sequence (Q99685 1-303 L169S/L176S) with S169L, S176L", "settings": "read-out: MGL wild type inh IC50, substrate 4MU-B 10 μM, 37° C."}, "[3]": {"system": "CCI-induced cold hypersensitivity", "assay": "Chronic Constriction Injury (CCI)-Induced Model of Neuropathic Pain-Cold Acetone-Hypersensitivity Test", "format": "in vivo", "settings": "Sprague-Dawley rats, 30 mg/kg p.o., HPβCD vehicle, last time point 4 h", "method": "Fourteen to 35 days following CCI surgery, subjects were placed in elevated observation chambers containing wire mesh floors, and five applications of acetone (0.05 mL/application separated by about 5 min) were spritzed onto the plantar surface of the paw using a multidose syringe. An abrupt withdrawal or lifting of the paw was considered a positive response. The number of positive responses was recorded for each rat over the five trials. Following baseline withdrawal determinations, compounds were administered in the indicated vehicle, by the indicated route (see Table 6). The number of withdrawals was re-determined 1 to 4 h after compound administration."}, "tactile allodynia": {"system": "tactile allodynia", "assay": "Spinal Nerve Ligation (SNL) Model of Neuropathic Pain-Tactile Allodynia Test", "format": "in vivo, rat", "settings": "L5 SNL rats, 30 mg/kg p.o., HPβCD vehicle, last time point 4 h", "source_text": "For lumbar 5 (L5) spinal nerve ligation (SNL) studies, anesthesia was induced and maintained on isoflurane inhalation. Fur was clipped over the dorsal pelvic area, and a 2-cm skin incision was made just left of midline over the dorsal aspect of the L4-S2 spinal segments, followed by separation of the paraspinal muscles from spinous processes. The transverse process of L6 was then carefully removed, and the L5 spinal nerve was identified. The left L5 spinal nerve was then ligated tightly with 6-0 silk thread, the muscle was sutured with 4-0 vicryl, and the skin was closed with wound clips. Following surgery, s.c. saline (5 mL) was administered. Behavioral testing was performed four weeks post-ligation. Following baseline von Frey determinations to verify the presence of mechanical allodynia, L5 SNL rats were orally administered the indicated vehicle or drug. […] which the paw ipsilateral to the nerve ligation was withdrawn from the application of a series of calibrated von Frey filaments (0.4, 0.6, 1.0, 2.0, 4, 6, 8 and 15 g; Stoelting; Wood Dale, Ill.). Beginning at an intermediate stiffness (2.0 g), filaments were applied to the mid-plantar hind paw for approximately 5 seconds. to determine the response threshold, a brisk paw withdrawal led to the presentation of the next lighter stimulus, whereas a lack of a withdrawal response led to the presentation of the next stronger stimulus. A total of four responses after the first threshold detection were collected. The 50% withdrawal thresholds were interpolated by the method of Dixon, Efficient analysis of experimental observations. Annu. Rev. Pharmacol. […] Neurosci. […] Threshold data from von Frey filament testing were reported as withdrawal threshold in grams. Data were normalized and results are presented as % MPE (maximum possible effect) of the drug calculated according to the following formula: [formula]"}, "[4]": {"system": "CFA induced paw pressure hypersensitivity", "assay": "CFA-Induced Paw Pressure Hypersensitivity", "format": "in vivo", "settings": "rat, dose 30, s.c., HPβCD vehicle, time 1 h", "method": "Prior to testing, rats were acclimated to the handling procedure twice a day for a period of two days. […] The endpoint was automatically reached upon hindpaw withdrawal, and the terminal force was noted (in grams). An initial (baseline) response threshold to the mechanical stimulus was recorded for each animal prior to the injection of complete Freund's adjuvant (CFA). Forty hr following intraplantar CFA injection, the response threshold of the animal to the mechanical stimulus was re-evaluated and compared to the animal's baseline response threshold. A response was defined as a withdrawal of the hindpaw, a struggling to remove the hindpaw or vocalization. […] Immediately following the post-CFA threshold assessment, rats were administered the indicated test compound or vehicle. Post-treatment withdrawal thresholds were assessed at 1 h. Paw withdrawal thresholds were converted to percent reversal of hypersensitivity according to the following formula: % reversal=[(post treatment response−predose response)/(baseline response−predose response)]×100."}, "[5]": {"settings": "murine model of acute inflammation; cited from earlier work"}}, "note": "Changes are numbered by the printed parent chain. Like-named read-outs stand apart in the source and are kept apart here.", "data": [{"molecule": "5-[2-(4-Chlorophenyl)-1-methyl-vinyl]-1-(2,4-dichloro-phenyl)-4-methyl-1H-pyrazole-3-carboxylic acid [Cpd 1010]", "values": [{"measurement": "Method 1: peak % reversal", "setting": "[1]", "result": 23.4, "unit": "%"}, {"measurement": "Kd", "setting": "mutant MGL; read-out: MGL mutant ThermoFluor Kd, ThermoFluor thermal stability binding assay", "result": 0.017, "unit": "µM"}, {"measurement": "Kd", "setting": "mutant MGL; read-out: MGL mutant ThermoFluor qKd (μM) (using qNMR conc.), ThermoFluor, compound concentration measured by qNMR", "result": 0.04, "unit": "µM"}, {"measurement": "Rat Brain 2AG % VehCntrl (%) @1 μM", "setting": "MGL", "result": 1953, "unit": "%"}, {"measurement": "IC50", "setting": "[2]", "result": "< 0.005", "unit": "µM"}]}, {"molecule": "O=C(c1ccccc1)N1CCN(C2CN(C(=O)c3ccc(-c4ccccc4)cc3)C2)CC1", "note": "[Cpd 5, 1-[1-(Biphenyl-4-ylcarbonyl)azetidin-3-yl]-4-(phenylcarbonyl)piperazine]", "values": [{"measurement": "peak percent inhibition", "setting": "[3]", "result": 26.7, "unit": "%"}]}, {"molecule": "O=C(c1cscn1)N1CCN(C2CN(C(=O)c3sc4cc(C(F)(F)F)ccc4c3Cl)C2)CC1", "note": "[Cpd 335, 1-(1-{[3-Chloro-6-(trifluoromethyl)-1-benzothiophen-2-yl]carbonyl}azetidin-3-yl)-4-(1,3-thiazol-4-ylcarbonyl)piperazine]", "values": [{"measurement": "peak % MPE", "setting": "tactile allodynia", "result": 50.1, "unit": "%"}]}, {"molecule": "O=C(c1ccc2c(ccn2-c2ccc(F)cc2)c1)N1CC(N2CCN(C(=O)c3nccs3)CC2)C1", "note": "[Cpd 487, 1-(4-Fluorophenyl)-5-({3-[4-(1,3-thiazol-2-ylcarbonyl)piperazin-1-yl]azetidin-1-yl}carbonyl)-1H-indole]", "values": [{"measurement": "peak percent inhibition", "setting": "[3]", "result": 100, "unit": "%"}, {"measurement": "peak % MPE", "setting": "tactile allodynia", "result": 61.2, "unit": "%"}, {"measurement": "percent reversal", "setting": "[4]", "result": 61.8, "unit": "%"}]}, {"molecule": "O=C(c1ccc(-c2cccc(C(F)(F)F)c2)c(Cl)c1)N1CC(N2CCN(C(=O)c3cscn3)CC2)C1", "note": "[Cpd 1102]", "values": [{"measurement": "Method 1: peak % reversal", "setting": "[1]", "result": 38, "unit": "%"}, {"measurement": "Method 2: peak % reversal", "setting": "[1]; mean of individual animal maximum values, up to 180 or 300 min", "result": 45.3, "unit": "%"}, {"measurement": "Kd", "setting": "mutant MGL; read-out: MGL mutant ThermoFluor Kd, 0.07 mg/ml, fit of concentration-response of Tm", "result": 0.006, "unit": "µM"}, {"measurement": "Rat Brain 2AG % VehCntrl (%) @1 μM", "setting": "MGL", "result": 878, "unit": "%"}]}, {"molecule": "O=C(c1ccc2c(ccn2-c2ccc(F)c(F)c2)c1)N1CC(N2CCN(C(=O)c3nccs3)CC2)C1", "note": "[Cpd 1362, 1-(3,4-Difluorophenyl)-5-({3-[4-(1,3-thiazol-2-ylcarbonyl)piperazin-1-yl]azetidin-1-yl}carbonyl)-1H-indole]", "values": [{"measurement": "peak % MPE", "setting": "tactile allodynia", "result": 84.3, "unit": "%"}, {"measurement": "percent reversal", "setting": "[4]", "result": 56.7, "unit": "%"}]}, {"molecule": "O=C(Nc1cccc(-c2ccccc2)c1)OC1CCCCC1", "note": "[URB602]", "values": [{"measurement": "antinociceptive effect", "setting": "[5]", "result": "showed an antinociceptive effect"}]}]}
